Reference: US20030022909A1, “Use of methylnaltrexone to treat immune suppression” (University of Chicago, priority 2001, published 2003)
Like-named read-outs stand apart in the source and are kept apart here.

Key:
[1] = test system: blood lymphocyte responses; conditions: cited from earlier work
[2] = test system: natural killer cells; experiment: Animal study: number of natural killer cells in mice after treatment; format: in vivo; conditions: ten mice per group
[3] = white crystalline powder as provided; cited from earlier work
[4] = test system: immune system effects of systemic morphine; conditions: rats, cited from earlier work
[5] = cited from earlier work
[6] = microinjection into the third ventricle

Row | Structure (SMILES) | analgesic responses [1, 6] | inhibition of blood lymphocyte responses [1, 6] [%] | plasma corticosterone concentration [1, 6] | effect on lymphocyte proliferation, plasma corticosterone concentrations or analgesic responses ([1]; systemic administration) | number of natural killer cells present after treatment compared to Group 1 (control) ([2]; Group 3: methylnaltrexone and morphine) | solubility in water [3] | antagonism of immune system effects of systemic morphine injection ([4]; administered intracerebroventricularly) | antagonism of immune system effects of systemic morphine injection ([4]; administered subcutaneously) | overt side effects ([5]; intravenous 0.45 mg/kg, volunteers) | half-life ([5]; intravenous compound) | number of natural killer cells present after treatment compared to Group 1 (control) ([2]; Group 2: placebo and morphine)
1 | C[N+]1(C)CC[C@]23c4c5ccc(O)c4O[C@H]2[C@@H](O)C=C[C@H]3[C@@H]1C5 [N-methylmorphine] | maximal analgesic responses were present | 70 | significantly elevated | did not effect |  |  |  |  |  |  | 
2 | C[N@+]1(CC2CC2)CC[C@]23c4c5ccc(O)c4O[C@H]2C(=O)CC[C@@]3(O)[C@H]1C5 [methylnaltrexone, N-cyclopropylmethylnoroxymorphine-methobromide] |  |  |  |  | comparable number of natural killer cells to Group 1 | freely soluble in water | antagonize most of the immune system effects | failed to do so | not associated with any overt side effects | less than two | 
3 | CN1CC[C@]23c4c5ccc(O)c4O[C@H]2[C@@H](O)C=C[C@H]3[C@H]1C5 [morphine] | maximal analgesic responses were present | 70 |  |  |  |  |  |  |  |  | significant decrease in the number of natural killer cells
